Data published in patent publication US8791143B2, “Anthranilic diamide derivatives having cyclic side-chains” (priority 2010, dated 2014).
Read-outs that look alike come from different tables or passages of the source.

Columns and labels:
[1] = log P by HPLC on reversed-phase columns (EEC Directive 79/831 Annex V.A8); format: physicochemical
[2] = test system: caterpillars of the armyworm (Spodoptera frugiperda); experiment: Spodoptera frugiperda test (SPODFR spray treatment); format: in vivo; conditions: Spodoptera frugiperda, 168 h, read-out: activity in % (caterpillars killed)
[3] = test system: larvae of the mustard beetle (Phaedon cochleariae); experiment: Phaedon test (PHAECO spray treatment); conditions: Phaedon cochleariae, 168 h, read-out: activity in % (beetle larvae killed)
[4] = reversed-phase C18 HPLC column, pH 2.7, HPLC reversed-phase C18, acidic range pH 2.7 (HCOOH), only or first value of the cell, read-out: log P
[5] = application rate 100 g/ha, after 7 days

Row | SMILES | chromatographic logP ([1]; pH 2.7, log P) | pest or weed control at 100 g/ha [2] [%] | pest or weed control at 100 g/ha [3] [%] | chromatographic logP [1, 4] | pest or weed control at 100 g/ha [2, 5] [%]
1 | Cc1cc(Cl)cc(C(=O)NCc2ccc(F)cc2F)c1NC(=O)c1cc(Cn2nnc(C(F)(F)F)n2)nn1-c1ncccc1Cl [Example 107] | 3.9 | 100 | 100 |  | 
2 | Cc1cc(Cl)cc(C(=O)NCc2ccc(F)c(F)c2F)c1NC(=O)c1cc(Cn2nnc(C(F)(F)F)n2)nn1-c1ncccc1Cl [Example 108] |  |  | 100 | 4.01 | 100
3 | Cc1cc(Cl)cc(C(=O)NCc2cc(F)cc(F)c2F)c1NC(=O)c1cc(Cn2nnc(C(F)(F)F)n2)nn1-c1ncccc1Cl [Example 109] |  |  | 100 | 3.98 | 100
4 | Cc1cc(Cl)cc(C(=O)NC(C)c2cccc(Cl)c2)c1NC(=O)c1cc(Cn2nnc(C(F)(F)F)n2)nn1-c1ncccc1Cl (stereo not drawn) [Example 110] | 4.31 | 100 | 100 |  | 
5 | Cc1cc(Cl)cc(C(=O)NC(C)c2ccc(Cl)cc2)c1NC(=O)c1cc(Cn2nnc(C(F)(F)F)n2)nn1-c1ncccc1Cl (stereo not drawn) [Example 111] | 4.3 | 100 | 100 |  | 
6 | Cc1ccccc1C(C)NC(=O)c1cc(Cl)cc(C)c1NC(=O)c1cc(Cn2nnc(C(F)(F)F)n2)nn1-c1ncccc1Cl (stereo not drawn) [Example 112] | 4.2 | 100 | 100 |  | 
7 | Cc1cccc(C(C)NC(=O)c2cc(Cl)cc(C)c2NC(=O)c2cc(Cn3nnc(C(F)(F)F)n3)nn2-c2ncccc2Cl)c1 (stereo not drawn) [Example 113] | 4.28 | 100 | 100 |  | 
8 | Cc1ccc(C(C)NC(=O)c2cc(Cl)cc(C)c2NC(=O)c2cc(Cn3nnc(C(F)(F)F)n3)nn2-c2ncccc2Cl)cc1 (stereo not drawn) [Example 114] | 4.24 | 100 | 100 |  | 
9 | Cc1cc(Cl)cc(C(=O)NC(C)c2ccc(C(C)(C)C)cc2)c1NC(=O)c1cc(Cn2nnc(C(F)(F)F)n2)nn1-c1ncccc1Cl (stereo not drawn) [Example 115] |  |  | 100 | 5.06 | 100
10 | Cc1cc(Cl)cc(C(=O)NCc2cccc(Cl)c2)c1NC(=O)c1cc(Cn2nnc(C(F)(F)F)n2)nn1-c1ncccc1Cl [Example 116] | 4.1 | 100 | 100 |  | 
11 | Cc1cc(Cl)cc(C(=O)NC(C)c2ccc(OC(F)(F)F)cc2)c1NC(=O)c1cc(Cn2nnc(C(F)(F)F)n2)nn1-c1ncccc1Cl (stereo not drawn) [Example 117] |  |  | 100 | 4.52 | 100
12 | Cc1cc(Cl)cc(C(=O)NCc2ccccc2C(F)(F)F)c1NC(=O)c1cc(Cn2nnc(C(F)(F)F)n2)nn1-c1ncccc1Cl [Example 118] |  |  | 100 | 4.21 | 100
13 | Cc1ccccc1CNC(=O)c1cc(Cl)cc(C)c1NC(=O)c1cc(Cn2nnc(C(F)(F)F)n2)nn1-c1ncccc1Cl [Example 119] | 4.03 | 100 | 100 |  | 
14 | Cc1cc(Cl)cc(C(=O)NC(C)c2cccc(C(F)(F)F)c2)c1NC(=O)c1cc(Cn2nnc(C(F)(F)F)n2)nn1-c1ncccc1Cl (stereo not drawn) [Example 120] |  |  | 100 | 4.42 | 100
15 | Cc1cc(Cl)cc(C(=O)NC(C)c2ccc(C(F)(F)F)cc2)c1NC(=O)c1cc(Cn2nnc(C(F)(F)F)n2)nn1-c1ncccc1Cl (stereo not drawn) [Example 121] |  |  | 100 | 4.32 | 100
16 | Cc1cc(Cl)cc(C(=O)NC(C)c2ccc(F)cc2)c1NC(=O)c1cc(Cn2nnc(C(F)(F)F)n2)nn1-c1ncccc1Cl (stereo not drawn) [Example 122] | 4 | 100 | 100 |  | 
17 | Cc1cc(Cl)cc(C(=O)NC(C)c2ccccc2C(F)(F)F)c1NC(=O)c1cc(Cn2nnc(C(F)(F)F)n2)nn1-c1ncccc1Cl (stereo not drawn) [Example 123] |  |  | 100 | 4.35 | 100
18 | Cc1cc(Cl)cc(C(=O)NC(C)c2cccc(Cl)c2Cl)c1NC(=O)c1cc(Cn2nnc(C(F)(F)F)n2)nn1-c1ncccc1Cl (stereo not drawn) [Example 124] |  |  | 100 | 4.57 | 100
19 | Cc1cc(Cl)cc(C(=O)NC(C)c2ccc(Cl)cc2F)c1NC(=O)c1cc(Cn2nnc(C(F)(F)F)n2)nn1-c1ncccc1Cl (stereo not drawn) [Example 125] |  |  | 100 | 4.42 | 100
20 | Cc1cc(Cl)cc(C(=O)NCc2ccc(OC(F)(F)F)cc2)c1NC(=O)c1cc(Cn2nnc(C(F)(F)F)n2)nn1-c1ncccc1Cl [Example 126] |  |  | 100 | 4.46 | 100

Row | SMILES | chromatographic logP ([1]; pH 2.7, log P) | pest or weed control at 100 g/ha [2] [%] | pest or weed control at 100 g/ha [3] [%] | chromatographic logP [1, 4] | pest or weed control at 100 g/ha [2, 5] [%]
21 | COC(=O)c1ccc(CNC(=O)c2cc(Cl)cc(C)c2NC(=O)c2cc(Cn3nnc(C(F)(F)F)n3)nn2-c2ncccc2Cl)cc1 [Example 127] |  |  | 100 | 3.68 | 100
22 | Cc1cc(Cl)cc(C(=O)N[C@H](C)c2ccc([N+](=O)[O-])cc2)c1NC(=O)c1cc(Cn2nnc(C(F)(F)F)n2)nn1-c1ncccc1Cl [Example 128] |  |  | 100 | 3.85 | 100
23 | Cc1cc(Cl)cc(C(=O)N[C@@H](C)c2ccc([N+](=O)[O-])cc2)c1NC(=O)c1cc(Cn2nnc(C(F)(F)F)n2)nn1-c1ncccc1Cl [Example 129] |  |  | 100 | 3.86 | 100
24 | Cc1cc(Cl)cc(C(=O)NCc2ccccc2)c1NC(=O)c1cc(Cn2nc(C(F)(F)F)c(C(F)(F)F)n2)nn1-c1ncccc1Cl [Example 134] |  |  | 100 | 4.52 | 100
25 | Cc1cc(C#N)cc(C(=O)NCc2ccccc2)c1NC(=O)c1cc(Cn2nc(C(F)(F)F)c(C(F)(F)F)n2)nn1-c1ncccc1Cl [Example 136] |  |  | 100 | 4.15 | 100
26 | Cc1cc(C#N)cc(C(=O)NCc2ccc(Cl)c(Cl)c2)c1NC(=O)c1cc(Cn2nnc(C(F)(F)F)n2)nn1-c1ccccc1Cl [Example 137] |  |  | 100 | 3.99 | 100
27 | Cc1cc(Cl)cc(C(=O)NC(C)c2ccc(Cl)cc2Cl)c1NC(=O)c1cc(Cn2nnc(C(F)(F)F)n2)nn1-c1ncccc1Cl (stereo not drawn) [Example 141] |  |  | 100 | 4.67 | 100
28 | Cc1cc(Cl)cc(C(=O)NC(C)c2ccc(Cl)c(Cl)c2)c1NC(=O)c1cc(Cn2nnc(C(F)(F)F)n2)nn1-c1ncccc1Cl (stereo not drawn) [Example 142] |  |  | 100 | 4.58 | 100
29 | Cc1cc(Cl)cc(C(=O)NC(C)c2cccc(F)c2)c1NC(=O)c1cc(Cn2nnc(C(F)(F)F)n2)nn1-c1ncccc1Cl (stereo not drawn) [Example 143] | 4 | 100 | 100 |  | 
30 | Cc1cc(Cl)cc(C(=O)NC(C)c2cc(Cl)ccc2Cl)c1NC(=O)c1cc(Cn2nnc(C(F)(F)F)n2)nn1-c1ncccc1Cl (stereo not drawn) [Example 144] |  |  | 100 | 4.58 | 100
31 | Cc1cc(I)cc(C(=O)NCc2ccccc2OC(F)(F)F)c1NC(=O)c1cc(Cn2nnc(C(F)(F)C(F)(F)F)n2)nn1-c1ncccc1Cl [Example 146] |  |  | 100 | 4.84 | 100
32 | Cc1cc(I)cc(C(=O)NCc2ccc(OC(F)(F)F)cc2)c1NC(=O)c1cc(Cn2nnc(C(F)(F)C(F)(F)F)n2)nn1-c1ncccc1Cl [Example 148] |  |  | 100 | 4.85 | 100
33 | Cc1cc(I)cc(C(=O)NCc2ccc(OC(F)F)cc2)c1NC(=O)c1cc(Cn2nnc(C(F)(F)C(F)(F)F)n2)nn1-c1ncccc1Cl [Example 149] |  |  | 100 | 4.35 | 100
34 | Cc1cc(F)cc(C(=O)NCc2ccccc2OC(F)(F)F)c1NC(=O)c1cc(Cn2nnc(C(F)(F)F)n2)nn1-c1ncccc1Cl [Example 154] |  |  | 100 | 3.92 | 100
35 | Cc1cc(F)cc(C(=O)NCc2ccc(OC(F)(F)F)cc2)c1NC(=O)c1cc(Cn2nnc(C(F)(F)F)n2)nn1-c1ncccc1Cl [Example 155] |  |  | 100 | 3.92 | 100
36 | Cc1cc(I)cc(C(=O)NCc2cccc(OC(F)(F)F)c2)c1NC(=O)c1cc(Cn2nnc(C(F)(F)F)n2)nn1-c1ncccc1Cl [Example 156] |  |  | 100 | 4.47 | 100
37 | Cc1cc(I)cc(C(=O)NCc2ccccc2OC(F)F)c1NC(=O)c1cc(Cn2nnc(C(F)(F)C(F)(F)F)n2)nn1-c1ncccc1Cl [Example 157] |  |  | 100 | 4.45 | 100
38 | Cc1cc(Cl)cc(C(=O)NCc2ccccc2OC(F)F)c1NC(=O)c1cc(Cn2nnc(C(F)(F)F)n2)nn1-c1ncccc1Cl [Example 158] |  |  | 100 | 4 | 100
39 | Cc1cc(Cl)cc(C(=O)NCc2cccc(OC(F)F)c2)c1NC(=O)c1cc(Cn2nnc(C(F)(F)F)n2)nn1-c1ncccc1Cl [Example 159] |  |  | 100 | 3.95 | 100
